Assay in all cases: PDH-coupled PDHK assay (residual PDH activity, NADH absorbance at […] nm), […] ATP
Holding throughout (format): biochemical

Experiment [1] addresses T1, human PDHK2 (hPDHK2, pyruvate dehydrogenase kinase 2) (Homo sapiens, UniProt Q15119).
T1 construct: gene PDK2; recombinant, Flag-tag at the N-terminus; with PDH enzyme derived from porcine heart (PDH/PDHK complex)

Experiment [2] addresses T2, human PDHK1 (hPDHK1, pyruvate dehydrogenase kinase 1) (Homo sapiens, UniProt Q15118).
T2 construct: gene PDK1; recombinant, Flag-tag at the N-terminus; with PDH enzyme derived from porcine heart (PDH/PDHK complex)

Experiment [3] deals with T3, human PDHK3 (hPDHK3, pyruvate dehydrogenase kinase 3) (Homo sapiens, UniProt Q15120).
T3 construct: gene PDK3; recombinant, Flag-tag at the N-terminus; with PDH enzyme derived from porcine heart (PDH/PDHK complex)

The source of these data is publication PMC11376040, “A novel PDHK inhibitor restored cognitive dysfunction and limited neurodegeneration without affecting amyloid pathology in 5xFAD mouse, a model of Alzheimer’s disease” (Alzheimer's Research & Therapy, 2024).

As a reminder, the IC50 is the concentration that gives 50% inhibition. A high value points to lower potency.

T2 sequence (Q15118 29-436): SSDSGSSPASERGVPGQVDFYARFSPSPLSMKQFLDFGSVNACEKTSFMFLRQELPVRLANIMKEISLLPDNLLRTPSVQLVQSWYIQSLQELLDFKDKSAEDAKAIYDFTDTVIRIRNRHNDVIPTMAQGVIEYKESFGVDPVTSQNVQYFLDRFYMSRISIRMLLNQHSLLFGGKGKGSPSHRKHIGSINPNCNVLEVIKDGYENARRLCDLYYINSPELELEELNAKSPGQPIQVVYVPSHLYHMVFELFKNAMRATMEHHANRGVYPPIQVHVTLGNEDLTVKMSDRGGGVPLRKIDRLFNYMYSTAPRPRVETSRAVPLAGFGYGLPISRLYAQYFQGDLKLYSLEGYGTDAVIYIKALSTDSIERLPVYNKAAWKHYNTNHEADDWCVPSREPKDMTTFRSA
T3 sequence (Q15120 whole entry): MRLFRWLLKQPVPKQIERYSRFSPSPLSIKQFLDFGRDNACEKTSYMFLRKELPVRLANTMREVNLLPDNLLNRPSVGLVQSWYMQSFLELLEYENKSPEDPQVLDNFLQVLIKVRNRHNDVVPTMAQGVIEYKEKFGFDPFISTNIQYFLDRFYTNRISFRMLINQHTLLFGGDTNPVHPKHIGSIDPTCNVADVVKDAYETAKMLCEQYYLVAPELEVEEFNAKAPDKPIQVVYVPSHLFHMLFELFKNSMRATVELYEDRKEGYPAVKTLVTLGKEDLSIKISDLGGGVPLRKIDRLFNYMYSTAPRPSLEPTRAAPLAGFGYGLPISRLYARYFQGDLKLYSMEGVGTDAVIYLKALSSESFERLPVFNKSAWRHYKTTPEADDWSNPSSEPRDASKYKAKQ

Turning to `C[C@H]1CN(C(=O)c2c(F)cc(C#N)cc2F)Cc2cnc([C@@](C)(O)C(F)(F)F)n21` [Compound A], the figures for the half-maximal inhibitory concentration (IC50) in experiment [1], in experiment [2] and in experiment [3] were 5.33 ± 0.12 nM, 8.17 ± 0.56 nM and 50.5 ± 3.23 nM, respectively.
